According to article PMC9415947 (Pharmaceuticals, 2022):

Tests used:
CD19+ B cells = experiment: B cell (CD19+) proliferation assay, CFSE flow cytometry; type: cell-based; settings: Homo sapiens, B-cell, 96 h, read-out: IC50 CD19
Experimental: CD19 cells were isolated from PBMCs using magnetic beads (Stem Cell (Vancouver, Canada)) and then labeled with 2 µM of CFSE (Invitrogen (Waltham, MA, USA)).
After 4 days, cells were stained with LIVE/DEAD™ kit (Invitrogen (Waltham, MA, USA)). Samples were acquired using Attune NxT flow cytometer (Invitrogen) and analyzed using FlowJo software. Each biological assay was performed with cells isolated from a different donor. The presented results constitute the average percentage values of proliferating cells from 3 independent experiments.
Human PBMCs were isolated from buffy coats of healthy donors obtained from the Regional Blood Donation and Blood Medicine Center in Warsaw. Lymphocytes B: CD19+ cells were isolated from PBMCs on magnetic beads (Stem Cell), labeled with 2 µM CFSE (Invitrogen), and seeded on a 96-well plate (1 × 10^5 cells/well). B cells were activated by 2 µg/mL of αIgM (Jackson ImmunoResearch) and 1 µg/mL of ODN2006 (InvivoGen). Cells were incubated with increasing concentrations of compounds (range 0.03–10,000 nM). After 4 days, B cells were stained with LIVE/DEAD™ kit (Invitrogen), acquired using the Attune NxT flow cytometer (Invitrogen), and analyzed using FlowJo10 software. For data normalization, the percentage value of proliferating cells in each sample was divided by the average percentage value of positive control in a single experiment. IC50 values were calculated using a three-parameter dose–response inhibition function in GraphPad Prism.

PI3Kα = target: T1, PI3Kα (Homo sapiens, UniProt P42336); experiment: In vitro PI3K inhibition assay (ADP-Glo kinase assay), PI3Kα; type: biochemical
T1 construct: purchased Merck Millipore (methods text)
T1 sequence (P42336 whole entry): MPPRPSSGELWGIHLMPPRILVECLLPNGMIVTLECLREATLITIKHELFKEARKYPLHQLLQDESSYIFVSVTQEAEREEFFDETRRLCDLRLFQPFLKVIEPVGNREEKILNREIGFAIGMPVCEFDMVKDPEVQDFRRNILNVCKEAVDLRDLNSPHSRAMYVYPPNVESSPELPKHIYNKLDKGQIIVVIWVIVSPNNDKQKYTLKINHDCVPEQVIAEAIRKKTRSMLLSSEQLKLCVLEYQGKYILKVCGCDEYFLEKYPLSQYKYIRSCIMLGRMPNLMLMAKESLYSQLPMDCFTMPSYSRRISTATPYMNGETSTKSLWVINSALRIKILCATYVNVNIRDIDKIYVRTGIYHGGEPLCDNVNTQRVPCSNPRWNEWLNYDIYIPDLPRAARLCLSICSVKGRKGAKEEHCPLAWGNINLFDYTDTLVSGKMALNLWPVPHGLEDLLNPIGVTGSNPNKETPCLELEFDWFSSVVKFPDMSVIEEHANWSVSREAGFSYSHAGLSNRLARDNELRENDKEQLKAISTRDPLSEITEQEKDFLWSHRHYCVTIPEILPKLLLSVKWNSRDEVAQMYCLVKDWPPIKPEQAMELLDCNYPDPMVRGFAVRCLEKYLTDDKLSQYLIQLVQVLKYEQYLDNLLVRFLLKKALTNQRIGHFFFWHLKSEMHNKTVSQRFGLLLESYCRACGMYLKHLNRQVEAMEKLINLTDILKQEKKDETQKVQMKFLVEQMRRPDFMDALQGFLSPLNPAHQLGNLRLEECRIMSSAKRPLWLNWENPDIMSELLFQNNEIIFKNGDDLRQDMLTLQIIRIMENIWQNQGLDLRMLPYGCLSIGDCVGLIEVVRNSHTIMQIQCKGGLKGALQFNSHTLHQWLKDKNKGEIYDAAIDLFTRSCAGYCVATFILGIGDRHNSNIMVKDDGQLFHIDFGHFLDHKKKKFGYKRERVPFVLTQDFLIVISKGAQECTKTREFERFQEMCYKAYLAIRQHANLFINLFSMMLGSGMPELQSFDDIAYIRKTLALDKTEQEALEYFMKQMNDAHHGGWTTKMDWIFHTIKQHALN
T1 sequence (P27986 whole entry partner): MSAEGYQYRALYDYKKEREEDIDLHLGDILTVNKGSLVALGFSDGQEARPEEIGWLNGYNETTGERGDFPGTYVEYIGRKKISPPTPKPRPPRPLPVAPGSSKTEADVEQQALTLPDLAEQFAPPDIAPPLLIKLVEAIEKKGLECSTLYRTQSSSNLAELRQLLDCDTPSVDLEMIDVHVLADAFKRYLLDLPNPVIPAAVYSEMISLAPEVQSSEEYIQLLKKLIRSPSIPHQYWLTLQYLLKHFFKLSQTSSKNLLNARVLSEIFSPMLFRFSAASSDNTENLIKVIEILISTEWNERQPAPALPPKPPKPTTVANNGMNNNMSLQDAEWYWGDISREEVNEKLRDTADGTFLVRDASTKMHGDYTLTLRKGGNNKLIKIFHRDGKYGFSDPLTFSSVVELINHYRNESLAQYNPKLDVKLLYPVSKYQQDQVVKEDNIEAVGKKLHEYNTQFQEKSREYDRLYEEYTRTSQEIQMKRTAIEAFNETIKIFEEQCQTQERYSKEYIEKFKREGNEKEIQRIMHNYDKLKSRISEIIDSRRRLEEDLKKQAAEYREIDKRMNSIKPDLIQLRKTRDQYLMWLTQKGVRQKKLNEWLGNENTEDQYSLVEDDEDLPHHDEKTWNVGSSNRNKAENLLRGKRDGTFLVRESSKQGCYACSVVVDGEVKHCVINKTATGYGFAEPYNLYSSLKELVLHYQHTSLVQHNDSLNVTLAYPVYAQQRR
Experimental: (§1) All compounds were tested in a biochemical assay that measured the inhibition of phosphatidylinositol […] production by PI3K isoforms using the ADP-Glo kinase assay (Promega). In addition, the effects of synthesized compounds on B cell proliferation were measured.
(§2) The potency and selectivity of compounds were assessed by measuring the ability of PI3K kinases to convert ATP to ADP during an enzymatic reaction in the presence of decreasing doses of tested compounds. The experiments were carried out using the ADP-Glo kinase assay kit (Promega), according to the manufacturer’s protocol. PI3Kα, PI3Kβ, PI3Kδ, and PI3Kγ have been purchased from Merck Millipore and phosphoinositol-4,5-bisphosphate (PIP2) lipid vesicles with phosphoserine from ThermoFisher Scientific were used as a substrate in the enzymatic reaction.
(§3) After the reaction, the ADP-Glo reagent and the kinase detection reagent were added sequentially with 40 min of incubation (25 °C, 600 rpm) after adding each reagent. Finally, the luminescence intensity was measured and the IC50 was calculated using GraphPad Prism 7 software. The presented results are the mean value of IC50 from at least two independent experiments.

[1] = Plasma protein binding, human; type: in vitro ADME
Text: Table 5 Selected parameters measured for CPL302415 (6). | column: Plasma Protein Binding [%] / Human

[2] = Kinetic solubility, shake-flask protocol; type: physicochemical; settings: aqueous buffer, kinetic from dmso stock; phosphate-buffered saline pH 7.4, 25 °C
[3] = Plasma protein binding, range across species; type: in vitro ADME; settings: human, monkey, mouse, rat, range depending on the species, read-out: plasma protein binding (PPBs)
[4] = Plasma protein binding, mice; type: in vitro ADME; settings: mouse
Text: Table 5 Selected parameters measured for CPL302415 (6). | column: Plasma Protein Binding [%] / Mice

[5] = Plasma protein binding, monkey; type: in vitro ADME
Text: Table 5 Selected parameters measured for CPL302415 (6). | column: Plasma Protein Binding [%] / Monkey

PI3Kδ = target: T2, PI3Kδ (Homo sapiens, UniProt O00329); experiment: In vitro PI3K inhibition assay (ADP-Glo kinase assay), PI3Kδ; type: biochemical; settings: mean of two independent experiments
T2 construct: purchased Merck Millipore
T2 sequence (O00329 whole entry, looked up): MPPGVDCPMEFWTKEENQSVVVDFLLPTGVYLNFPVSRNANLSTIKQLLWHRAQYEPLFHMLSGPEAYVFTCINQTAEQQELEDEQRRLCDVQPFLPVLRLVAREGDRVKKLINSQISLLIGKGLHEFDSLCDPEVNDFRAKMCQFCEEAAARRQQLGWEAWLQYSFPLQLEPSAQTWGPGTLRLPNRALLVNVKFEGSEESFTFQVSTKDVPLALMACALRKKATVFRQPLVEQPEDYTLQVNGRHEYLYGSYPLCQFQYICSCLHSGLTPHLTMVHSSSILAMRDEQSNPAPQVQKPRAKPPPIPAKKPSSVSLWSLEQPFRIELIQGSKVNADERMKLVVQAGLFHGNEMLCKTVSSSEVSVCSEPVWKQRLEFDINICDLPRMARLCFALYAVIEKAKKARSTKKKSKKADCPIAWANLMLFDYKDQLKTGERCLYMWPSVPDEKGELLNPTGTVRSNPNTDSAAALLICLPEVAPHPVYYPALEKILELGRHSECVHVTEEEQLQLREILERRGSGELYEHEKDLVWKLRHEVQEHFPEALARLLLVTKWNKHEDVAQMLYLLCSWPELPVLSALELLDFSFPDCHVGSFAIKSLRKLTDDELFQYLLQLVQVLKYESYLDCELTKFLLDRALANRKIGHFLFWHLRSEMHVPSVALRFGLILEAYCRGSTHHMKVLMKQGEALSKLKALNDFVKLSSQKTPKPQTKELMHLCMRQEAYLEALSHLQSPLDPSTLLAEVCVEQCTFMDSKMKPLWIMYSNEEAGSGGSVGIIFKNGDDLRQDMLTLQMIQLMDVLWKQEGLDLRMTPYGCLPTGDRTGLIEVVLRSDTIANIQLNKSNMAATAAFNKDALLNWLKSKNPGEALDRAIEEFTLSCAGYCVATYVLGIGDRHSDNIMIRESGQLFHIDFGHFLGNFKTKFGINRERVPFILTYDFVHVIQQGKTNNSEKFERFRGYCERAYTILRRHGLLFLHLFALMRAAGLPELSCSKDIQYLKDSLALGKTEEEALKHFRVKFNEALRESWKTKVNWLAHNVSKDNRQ

PAMPA permeability = type: in vitro ADME
PI3Kβ = target: T3, PI3Kβ (Homo sapiens, UniProt P42338); experiment: In vitro PI3K inhibition assay (ADP-Glo kinase assay), PI3Kβ; type: biochemical
T3 construct: purchased Merck Millipore
T3 sequence (P42338 whole entry, looked up): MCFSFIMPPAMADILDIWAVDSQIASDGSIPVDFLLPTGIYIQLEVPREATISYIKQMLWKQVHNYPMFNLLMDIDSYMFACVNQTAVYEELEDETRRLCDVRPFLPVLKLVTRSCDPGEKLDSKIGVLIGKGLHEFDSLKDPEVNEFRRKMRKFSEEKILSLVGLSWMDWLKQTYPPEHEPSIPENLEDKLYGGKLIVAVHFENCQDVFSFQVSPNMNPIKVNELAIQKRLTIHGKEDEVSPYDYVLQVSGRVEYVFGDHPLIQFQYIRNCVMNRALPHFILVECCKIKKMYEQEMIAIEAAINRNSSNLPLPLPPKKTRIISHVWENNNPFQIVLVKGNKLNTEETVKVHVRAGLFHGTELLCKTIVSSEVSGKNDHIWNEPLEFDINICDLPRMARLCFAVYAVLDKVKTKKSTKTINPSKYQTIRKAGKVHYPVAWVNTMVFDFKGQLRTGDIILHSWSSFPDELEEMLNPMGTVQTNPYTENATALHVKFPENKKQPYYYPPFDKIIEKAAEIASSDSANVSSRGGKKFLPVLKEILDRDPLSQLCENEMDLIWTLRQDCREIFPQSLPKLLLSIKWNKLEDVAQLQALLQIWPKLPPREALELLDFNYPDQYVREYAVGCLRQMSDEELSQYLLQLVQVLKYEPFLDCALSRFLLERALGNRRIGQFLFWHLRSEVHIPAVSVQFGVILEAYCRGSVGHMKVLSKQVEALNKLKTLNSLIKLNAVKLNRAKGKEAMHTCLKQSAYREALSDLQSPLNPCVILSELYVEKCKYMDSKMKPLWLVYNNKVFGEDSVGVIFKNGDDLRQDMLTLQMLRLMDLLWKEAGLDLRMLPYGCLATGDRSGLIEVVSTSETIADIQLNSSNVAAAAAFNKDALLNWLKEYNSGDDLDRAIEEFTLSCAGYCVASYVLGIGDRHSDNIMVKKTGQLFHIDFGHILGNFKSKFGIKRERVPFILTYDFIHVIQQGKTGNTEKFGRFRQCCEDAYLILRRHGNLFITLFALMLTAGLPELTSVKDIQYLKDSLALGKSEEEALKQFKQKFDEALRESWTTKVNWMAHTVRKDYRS
Experimental: as §1, §2, §3

[6] = Metabolic stability in human liver microsomes (HLM); type: in vitro ADME; settings: read-out: Metabolic Stability HLM t½
Bioavailability in mice = settings: mouse, in vivo, depending on the formulation form, read-out: bioavailability F
[7] = Metabolic stability in mouse liver microsomes (MLM); type: in vitro ADME, mouse (CD-1)
PI3Kγ = target: T4, PI3Kγ (Homo sapiens, UniProt P48736); experiment: In vitro PI3K inhibition assay (ADP-Glo kinase assay), PI3Kγ; type: biochemical
T4 construct: purchased Merck Millipore
T4 sequence (P48736 whole entry): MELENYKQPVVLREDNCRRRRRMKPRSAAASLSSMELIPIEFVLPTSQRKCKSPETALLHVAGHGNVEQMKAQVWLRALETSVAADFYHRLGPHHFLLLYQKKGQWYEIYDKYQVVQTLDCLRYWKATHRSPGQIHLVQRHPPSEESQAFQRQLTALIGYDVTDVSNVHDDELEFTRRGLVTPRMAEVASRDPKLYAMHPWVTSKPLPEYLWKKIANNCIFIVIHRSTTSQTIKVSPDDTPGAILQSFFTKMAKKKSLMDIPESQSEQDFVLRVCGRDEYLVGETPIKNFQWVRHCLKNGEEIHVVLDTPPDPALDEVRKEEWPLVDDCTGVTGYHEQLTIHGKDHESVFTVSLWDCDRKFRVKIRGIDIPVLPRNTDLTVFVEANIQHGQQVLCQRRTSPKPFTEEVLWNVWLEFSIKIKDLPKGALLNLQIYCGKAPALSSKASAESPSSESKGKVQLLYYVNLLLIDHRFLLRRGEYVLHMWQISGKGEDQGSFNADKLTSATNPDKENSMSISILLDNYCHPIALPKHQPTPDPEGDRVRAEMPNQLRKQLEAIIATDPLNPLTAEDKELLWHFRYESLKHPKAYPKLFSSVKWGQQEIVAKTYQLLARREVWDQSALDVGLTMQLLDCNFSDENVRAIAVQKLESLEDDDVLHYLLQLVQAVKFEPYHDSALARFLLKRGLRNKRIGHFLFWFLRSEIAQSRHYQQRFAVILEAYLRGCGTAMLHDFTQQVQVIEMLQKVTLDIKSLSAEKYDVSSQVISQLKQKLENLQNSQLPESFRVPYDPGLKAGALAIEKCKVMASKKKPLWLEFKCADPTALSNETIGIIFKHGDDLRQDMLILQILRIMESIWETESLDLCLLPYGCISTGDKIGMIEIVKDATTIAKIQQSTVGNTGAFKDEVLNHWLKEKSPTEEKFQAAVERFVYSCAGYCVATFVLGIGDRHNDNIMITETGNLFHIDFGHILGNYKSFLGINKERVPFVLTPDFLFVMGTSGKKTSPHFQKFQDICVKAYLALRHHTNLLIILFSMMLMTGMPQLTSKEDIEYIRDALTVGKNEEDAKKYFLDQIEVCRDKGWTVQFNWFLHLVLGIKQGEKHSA

Bioavailability in dogs = settings: dog, in vivo, depending on the formulation form, read-out: bioavailability F
[8] = Plasma protein binding, rat; type: in vitro ADME
Text: Table 5 Selected parameters measured for CPL302415 (6). | column: Plasma Protein Binding [%] / Rat

[9] = mean of two independent experiments

CC(C)(C)N1CCN(Cc2cc3nc(-n4c(C(F)F)nc5ccccc54)cc(N4CCOCC4)n3n2)CC1 [Compound 6, 1-{2-[(4-tert-butylpiperazin-1-yl)methyl]-7-(morpholin-4-yl)pyrazolo[1,5-a]pyrimidin-5-yl}-2-(difluoromethyl)-1H-benzimidazole]
IC50 (CD19+ B cells): 41 nM | IC50 (PI3Kα): 1430 nM | Fold Selectivity α/δ (PI3Kα; ratio IC50 PI3Kα / IC50 PI3Kδ): 79 | fraction unbound [1]: 0.21 | solubility kinetic at 24 h [2]: > 500 µM | fraction unbound [3]: 0.17 to 0.21 | fraction unbound [4]: 0.17 | fraction unbound [5]: 0.19 | IC50 (PI3Kδ): 18 nM | Papp (PAMPA permeability): 13.3 ×10⁻⁶ cm/s | IC50 (PI3Kβ; [9]): 25500 nM | Fold Selectivity β/δ (PI3Kβ; ratio IC50 PI3Kβ / IC50 PI3Kδ): 1415 | half-life at 1 μM [6]: 2.42 h | bioavailability (Bioavailability in mice): > 55% | microsomal CLint at 1 μM ([7]; CD-1, read-out: Metabolic Stability MLM CL): 3.7 µL/min/mg | half-life at 1 μM ([7]; CD-1, read-out: Metabolic Stability MLM t½): 6.3 h | IC50 (PI3Kγ; [9]): 16900 nM | Fold Selectivity γ/δ (PI3Kγ; ratio IC50 PI3Kγ / IC50 PI3Kδ): 939 | bioavailability (Bioavailability in dogs): > 90% | fraction unbound [8]: 0.18
